For one experiment, the target named is T1, integrin α4β1 (Homo sapiens, UniProt P05556+P13612).
T1 construct: cell strain Jurkat (ATCC TIB-152) of human T cells, known to express integrin α4β1; host or cells: Jurkat (human T cell line)
The experiment in a line: VCAM antagonist activity (VCAM-1/α4β1 binding assay). The experiment is classed as cell-based. As to conditions: Jurkat cells binding to VCAM-1; read-out: VCAM antagonistic activity (IC50) α4β1. In short, it runs like this:
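Plates coated overnight at 4° C with recombinant human VCAM-1 (500 ng/ml, pH 9.6) and blocked. Calcein-AM-labelled Jurkat cells (α4β1) added with compound in HEPES/DMEM/0.1% BSA, 30 min at room temperature; unbound cells shaken off, bound fluorescence read at 485/535 nm. IC50 from binding relative to compound-free wells.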

For another experiment, the target named is T2, integrin α4β7 (Homo sapiens, UniProt P13612+P26010).
T2 construct: lymphoma cell strain RPMI-8866 of human B cells, known to express integrin α4β7; endogenous in cells; host or cells: RPMI-8866 (human B lymphoma cell line)
T2 sequence (P13612 34-1032): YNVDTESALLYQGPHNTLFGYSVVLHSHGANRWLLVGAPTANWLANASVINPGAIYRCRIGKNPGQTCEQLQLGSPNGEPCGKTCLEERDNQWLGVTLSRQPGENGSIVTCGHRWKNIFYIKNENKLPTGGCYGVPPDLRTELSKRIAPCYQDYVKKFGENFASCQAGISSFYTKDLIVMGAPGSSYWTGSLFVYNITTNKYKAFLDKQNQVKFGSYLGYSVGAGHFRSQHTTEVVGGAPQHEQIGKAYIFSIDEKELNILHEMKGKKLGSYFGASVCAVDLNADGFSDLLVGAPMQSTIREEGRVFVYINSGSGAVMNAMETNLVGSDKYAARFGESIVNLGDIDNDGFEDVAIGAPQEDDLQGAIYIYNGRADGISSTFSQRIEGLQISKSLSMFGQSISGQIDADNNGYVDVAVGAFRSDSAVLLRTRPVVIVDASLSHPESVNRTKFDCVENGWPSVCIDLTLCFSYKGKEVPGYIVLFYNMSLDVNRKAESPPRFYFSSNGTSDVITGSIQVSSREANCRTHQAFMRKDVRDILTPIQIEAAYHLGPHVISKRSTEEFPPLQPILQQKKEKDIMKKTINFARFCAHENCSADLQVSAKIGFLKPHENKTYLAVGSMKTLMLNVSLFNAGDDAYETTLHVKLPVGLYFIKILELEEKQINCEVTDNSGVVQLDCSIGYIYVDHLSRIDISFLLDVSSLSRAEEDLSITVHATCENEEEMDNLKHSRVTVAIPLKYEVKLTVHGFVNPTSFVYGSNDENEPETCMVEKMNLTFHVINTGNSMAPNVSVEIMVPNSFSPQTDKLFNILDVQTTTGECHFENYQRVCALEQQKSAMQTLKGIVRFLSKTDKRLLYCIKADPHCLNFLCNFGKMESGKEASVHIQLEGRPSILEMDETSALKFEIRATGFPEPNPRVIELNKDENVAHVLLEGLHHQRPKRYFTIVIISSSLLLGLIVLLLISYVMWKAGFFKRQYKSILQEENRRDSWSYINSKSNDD
T2 sequence (P26010 20-798): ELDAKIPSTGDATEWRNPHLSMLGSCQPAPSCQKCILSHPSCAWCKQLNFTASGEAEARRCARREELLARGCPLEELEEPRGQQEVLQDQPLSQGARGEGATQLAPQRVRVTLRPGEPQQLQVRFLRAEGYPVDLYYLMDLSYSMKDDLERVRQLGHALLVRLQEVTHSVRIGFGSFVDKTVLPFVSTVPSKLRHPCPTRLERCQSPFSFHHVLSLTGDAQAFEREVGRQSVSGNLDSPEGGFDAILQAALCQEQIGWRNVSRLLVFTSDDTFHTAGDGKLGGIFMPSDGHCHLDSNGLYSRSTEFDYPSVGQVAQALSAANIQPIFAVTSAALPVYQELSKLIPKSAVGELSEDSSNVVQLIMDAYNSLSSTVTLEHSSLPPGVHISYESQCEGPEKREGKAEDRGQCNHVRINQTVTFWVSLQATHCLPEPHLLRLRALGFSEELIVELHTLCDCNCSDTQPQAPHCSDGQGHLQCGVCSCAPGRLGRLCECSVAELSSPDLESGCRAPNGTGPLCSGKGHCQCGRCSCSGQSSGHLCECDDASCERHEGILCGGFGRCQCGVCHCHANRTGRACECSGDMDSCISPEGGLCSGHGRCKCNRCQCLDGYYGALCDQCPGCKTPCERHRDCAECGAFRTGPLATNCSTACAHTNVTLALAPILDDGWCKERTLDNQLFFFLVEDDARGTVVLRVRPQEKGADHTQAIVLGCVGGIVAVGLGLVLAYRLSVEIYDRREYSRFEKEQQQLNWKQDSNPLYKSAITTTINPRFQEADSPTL
Nature of the experiment: VCAM antagonistic activity (VCAM-1/α4β7 binding assay). It counts as cell-based. Conditions: RPMI-8866 cells binding to VCAM-1; read-out: VCAM antagonistic activity (IC50) α4β7. Put shortly: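 Calcein-AM-labelled human B-lymphoma RPMI-8866 cells bound to plate-coated recombinant human VCAM-1 in HEPES/DMEM/0.1% BSA with 4 mM MnCl2, with compound, 30 min at room temperature. Unbound cells removed by shaking; bound-cell fluorescence (ex 485/em 535 nm) versus compound-free wells gave IC50, binned.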

The values that follow come from patent US7160874B2, “Phenylalanine derivatives” (Ajinomoto Co., Inc., priority 1999, dated 2007).

SMILES strings stand for the structures. Bounds are passed on as bounds.

T1 sequence (P05556 21-798, one chain of several): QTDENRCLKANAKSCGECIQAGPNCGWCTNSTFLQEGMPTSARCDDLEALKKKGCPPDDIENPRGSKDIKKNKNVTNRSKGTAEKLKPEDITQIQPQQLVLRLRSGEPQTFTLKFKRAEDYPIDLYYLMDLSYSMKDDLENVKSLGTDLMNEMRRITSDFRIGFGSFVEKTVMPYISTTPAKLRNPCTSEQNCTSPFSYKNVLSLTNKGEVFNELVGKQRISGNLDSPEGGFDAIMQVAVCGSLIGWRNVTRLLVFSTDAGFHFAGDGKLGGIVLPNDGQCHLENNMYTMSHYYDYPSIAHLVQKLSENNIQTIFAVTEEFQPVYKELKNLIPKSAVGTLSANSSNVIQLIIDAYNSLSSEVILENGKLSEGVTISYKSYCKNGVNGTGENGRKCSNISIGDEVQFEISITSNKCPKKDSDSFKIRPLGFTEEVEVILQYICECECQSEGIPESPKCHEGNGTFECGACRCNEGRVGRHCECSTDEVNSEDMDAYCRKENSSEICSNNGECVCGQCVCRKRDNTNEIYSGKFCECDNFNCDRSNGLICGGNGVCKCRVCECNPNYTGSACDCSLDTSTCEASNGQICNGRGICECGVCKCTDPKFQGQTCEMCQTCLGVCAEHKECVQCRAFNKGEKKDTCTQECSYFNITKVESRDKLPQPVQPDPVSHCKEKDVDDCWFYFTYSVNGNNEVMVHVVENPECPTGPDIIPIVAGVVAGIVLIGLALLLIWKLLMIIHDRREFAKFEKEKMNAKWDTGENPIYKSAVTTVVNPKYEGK

The term IC50 denotes the concentration needed to halve the response being measured. `CCC(CC)(C(=O)N[C@@H](Cc1ccc(-n2c(=O)c3ccccc3n(Cc3ccc4ccccc4c3)c2=O)cc1)C(=O)O)C(=O)N1CCCC1` [Example 100]: the values for the concentration for half-maximal inhibition (IC50) on integrin α4β1 and on integrin α4β7 were 100 to 2000 nM and 20 to 100 nM, respectively.
Take `CCC(CC)(C(=O)N[C@@H](Cc1ccc(-n2c(=O)c3ccccc3n(CC=Cc3ccccc3)c2=O)cc1)C(=O)O)C(=O)N1CCCC1` [Example 101]: the values for the IC50 on integrin α4β1 and at integrin α4β7 were 100 to 2000 nM and 20 to 100 nM, respectively.
The like results for `C#CCn1c(=O)n(-c2ccc(C[C@H](NC(=O)C(CC)(CC)C(=O)N3CCCC3)C(=O)O)cc2)c(=O)c2ccccc21` [Example 102] were, in that order, 100 to 2000 nM and under 20 nM.
As for `CCC(CC)(C(=O)N[C@@H](Cc1ccc(-n2c(=O)c3ccccc3n(CC(=O)OC)c2=O)cc1)C(=O)O)C(=O)N1CCCC1` [Example 103], the IC50 on integrin α4β1 lay within 100 to 2000 nM; at integrin α4β7 it was 20 to 100 nM.
The like results for `CCC(CC)(C(=O)N[C@@H](Cc1ccc(-c2c(OC)cccc2OC)cc1)C(=O)O)C(=O)N(C)C` [Example 104] were, in that order, 100 to 2000 nM and 20 to 100 nM.
For `COc1cccc(OC)c1-c1ccc(C[C@H](NC(=O)C(C)(C)C(=O)N(C)C)C(=O)O)cc1` [Example 105, N-[3-(dimethylamino)-2,2-dimethyl-3-oxopropanoyl]-4-(2,6-dimethoxyphenyl)-L-phenylalanine], in that order: 100 to 2000 nM and 20 to 100 nM.
As for `O=CN1CCN(C(=O)C2(C(=O)N[C@@H](Cc3ccc(OCc4c(Cl)cccc4Cl)cc3)C(=O)O)CCC2)CC1` [Example 463], the IC50 at integrin α4β1 and on integrin α4β7 was 100 to 2000 nM throughout.
For the compound `CCC(CC)(C(=O)N[C@@H](Cc1ccc(OCc2c(Cl)cccc2Cl)cc1)C(=O)O)C(=O)N1CCN(C(C)=O)CC1` [Example 464], the 50% inhibitory concentration (IC50) is 100 to 2000 nM at integrin α4β1 and 20 to 100 nM on integrin α4β7.
For `CCC(CC)(C(=O)NC(Cc1ccc(OCc2c(Cl)cccc2Cl)cc1)C(=O)O)C(=O)N1CC2CC1CN2C(C)=O` (stereo not shown) [Example 466], in that order: 20 to 100 nM and under 20 nM.
The like results for `O=C(O)[C@H](Cc1ccc(OCc2c(Cl)cccc2Cl)cc1)NC(=O)C1(C(=O)N2CC[C@@H](O)C2)CCOCC1` [Example 467] were, in that order, 100 to 2000 nM and under 20 nM.
`CN(C)C(=O)C1(C(=O)N[C@@H](Cc2ccc(OCc3c(Cl)cccc3Cl)cc2)C(=O)O)CCOCC1` [Example 468]: the IC50 at integrin α4β1 was 100 to 2000 nM; at integrin α4β7, under 20 nM.
For `CC1(C)CC2CC(C)(CN2C(=O)C2(C(=O)NC(Cc3ccc(OCc4c(Cl)cccc4Cl)cc3)C(=O)O)CCOCC2)C1` (stereo not shown) [Example 472], in that order: 2000 to 10000 nM and 100 to 2000 nM.
As to `CCC(CC)(C(=O)N[C@@H](Cc1ccc(NC(=O)c2nc(SC)ncc2Br)cc1)C(=O)O)C(=O)N1CCCC1` [Example 477], the IC50 on integrin α4β1 was 20 to 100 nM; on integrin α4β7, under 20 nM.
For `CCC(CC)(C(=O)N[C@@H](Cc1ccc(NC(=O)c2nc([S+](C)[O-])ncc2Cl)cc1)C(=O)O)C(=O)N1CCCC1` (stereo partly drawn) [Example 478, N-[2-(pyrrolidine-1-ylcarbonyl)-2-ethyl-butanoyl]-4-({[5-chloro-2-(methylsulfinyl)pyrimidine-4-yl]carbonyl}amino)-L-phenyl-alanine], in that order: 20 to 100 nM and under 20 nM.
As to `CCC(CC)(C(=O)N[C@@H](Cc1ccc(NC(=O)c2nc(S(C)(=O)=O)ncc2Cl)cc1)C(=O)O)C(=O)N1CCCC1` [Example 479, N-[2-(pyrrolidine-1-ylcarbonyl)-2-ethyl-butanoyl)-4-({[5-chloro-2-(methylsulfonyl)pyrimidine-4-yl]carbonyl}-amino)-L-phenyl-alanine], the IC50 is 20 to 100 nM on integrin α4β1 and under 20 nM on integrin α4β7.
The like results for `CCC(CC)(C(=O)N[C@@H](Cc1ccc(NC(=O)c2nc(NCc3ccc(OC)cc3)ncc2Cl)cc1)C(=O)O)C(=O)N1CCCC1` [Example 480, N-[2-(pyrrolidine-1-ylcarbonyl)-2-ethyl-butanoyl]-4-[({5-chloro-2-[(4-methoxybenzyl)amino]pyrimidine-4-yl}carbonyl)amino]-L-phenylalanine] were, in that order, 20 to 100 nM and under 20 nM.
Regarding `CCC(CC)(C(=O)N[C@@H](Cc1ccc(NC(=O)c2nc(N3CCCC3)ncc2Cl)cc1)C(=O)O)C(=O)N1CCCC1` [Example 481], the IC50 on integrin α4β1 was 20 to 100 nM; on integrin α4β7 it was under 20 nM.
The like results for `CCC(CC)(C(=O)N[C@@H](Cc1ccc(NC(=O)c2nc(N3CCCCC3)ncc2Cl)cc1)C(=O)O)C(=O)N1CCCC1` [Example 482] were, in that order, 100 to 2000 nM and under 20 nM.
For `CCCNc1ncc(Cl)c(C(=O)Nc2ccc(C[C@H](NC(=O)C(CC)(CC)C(=O)N3CCCC3)C(=O)O)cc2)n1` [Example 483], the IC50 at integrin α4β1 is 20 to 100 nM; at integrin α4β7, under 20 nM.
For `CCC(CC)(C(=O)N[C@@H](Cc1ccc(NC(=O)c2nc(NC)ncc2Cl)cc1)C(=O)O)C(=O)N1CCCC1` [Example 484], in that order: 20 to 100 nM and under 20 nM.
